Source: patent US5955325A, “Method for producing sulfated lactosamine oligosaccharide” (Seikagaku Kogyo Kabushiki Kaisha, priority 1996, dated 1999)
“Also recorded” adds a separate entry of the source.

B1: chondroitin 6-sulfotransferase: sulfotransferase purified from serum-free culture medium of chick chondrocyte (protein, UniProt Q92179 1-458, looked up)
Carbohydrate sulfotransferase …: MERRSALPQDFREVLHCLKMRSKYAVLLVFVVGLVIIEKENNFISRVSDKLKQSPQVLPEANETEASPVQAENGSLASLRQLDTAFSQLRTRLRNVTLQLAGELGIAAPEPRRHVLLMATTRTGSSFVGEFFNQQGNIFYLFEPLWHIERTVTFEPGGANAVGSALVYRDVLQQLLLCDLYILESFISPAPEEHLTAALFRRGSSHSLCEEPVCTPSLKKVFEKYHCKNRRCGPLNITLAAEACRRKQHMALKTVRIRQLEFLQPLAEDPRLDLRIIQLVRDPRAVLVSRMVAFSGKYESWKKWAAEGEAPLQEDEVQRLRGNCESIRLSAELGLRQPRWLRGRYMLVRYEDVARAPLRKALEMYRFAGIHPTPQVEEWIRANTQAPQDSNGIYSTQKNSSEQFEKWRFSIPFKLAQVVQDACEPAMRLFGYKLASSAQELTNRSLSLLEEGPPTRIT

Experiments:
[1] = tested on: chondroitin 6-sulfotransferase; assay: Transfer reaction of sulfate group (35SO4) to lactosamine oligosaccharides by purified sulfotransferase; type: biochemical, chick; conditions: for Incorporation of 35S: 0.025 μmol oligosaccharide acceptor, 25 pmol [35S]PAPS, 0.09 μg purified C6ST, 37° C., 60 minutes, pH 6.8; for Incorporation (transfer) of sulfate group into the oligosaccharide, in words: acceptor for chondroitin 6-sulfotransferase, Superdex 30 gel filtration, 35S radioactivity
Method: Specifically, the transfer reaction of sulfate group (^35 SO4 was used as sulfate group in order to confirm sulfation) to various lactosamine oligosaccharides by using sulfotransferase was performed in accordance with the following method. A standard reaction mixture was a solution containing 2.5 μmol of imidazole-HCl (pH 6.8), 0.25 μmol of CaCl2, 0.1 μmol of dithiothreitol, 0.025 μmol of various lactosamine oligosaccharides, 25 pmol of [^35 S]PAPS (about 2.5×10^5 cpm), and 0.09 μg of purified chondroitin 6-sulfotransferase in a final volume of 50 μl. The reaction mixture was subjected to the reaction at 37° C. for 60 minutes in a reaction tube. The reaction was terminated by immersing the reaction tube in boiling water for 1 minute. After the termination of the reaction, lactosamine oligosaccharide (sulfated lactosamine oligosaccharide) to which ^35 SO4 had been transferred was separated from free ^35 SO4 and [^35 S]PAPS by means of gel filtration chromatography. A fraction (1 ml) was collected to measure the radioactivity.
The retention time of the sulfated lactosamine oligosaccharide was faster by 2 to 3 minutes than the retention time (indicated by arrows shown in FIG. 1) of the lactosamine oligosaccharide used (lactosamine oligosaccharide before sulfation (acceptor)). […] A peak of sulfated LN partially overlapped with those of free ^35 SO4 and [^35 S]PAPS. A radioactivity peak (indicated by a horizontal bar in FIG. 1A) of a product produced from LN was subjected to paper electrophoresis. As a result, the sulfated LN was separated from ^35 SO4 and [^35 S]PAPS. Therefore, incorporation of sulfate group (^35 SO4) into LN was calculated after the paper electrophoresis.

[2] = tested on: chondroitin 6-sulfotransferase (C6ST); assay: Sulfotransferase activity measured with various glycosaminoglycan substrates and activators; type: biochemical, chick; conditions: for Transfer of sulfate group to glycosaminoglycan substrate by C6ST, in words: 25 nmol glycosaminoglycan, [35S]PAPS, 37° C., 20 minutes
Method: In the purification steps, the sulfotransferase activity was measured as follows. The reaction solution had the following composition.
The activity was measured for various glycosaminoglycans as the substrate, by using 25 nmol of glycosaminoglycans (as an amount of galactosamine for chondroitin sulfate and dermatan sulfate, or as an amount of glucosamine for heparan sulfate and keratan sulfate) in place of chondroitin.
The reaction solution was incubated at 37° C. for 20 minutes in a reaction tube, and then the reaction was terminated by immersing the reaction tube in boiling water for 1 minute. After the termination of the reaction, 0.1 μmol of chondroitin sulfate A (as an amount of glucuronic acid) was added as a carrier, and three volumes of ethanol containing 1.3% potassium acetate was added thereto to precipitate ^35 S-labeled polysaccharide. The mixture was centrifuged at 10,000× g for 10 minutes to obtain a precipitate which was then dissolved in 70 μl of water. An aliquot (50 μl) of the obtained solution was injected into a desalting column equilibrated with 0.1 M NH4 HCO3, and eluted fractions containing the ^35 S-labeled polysaccharide were collected. To an aliquot (200 μl) of an obtained collected fraction, 1 ml of a scintillation cocktail (Clearsol, produced by nacalai tesque) was added to measure ^35 S-radioactivity. Thus incorporation of ^35 S into the polysaccharide was measured.
An aliquot (400 μl) was dispensed from the residual solution, to which 800 μl of ethanol containing 1.3% potassium acetate was added, followed by mixing. The mixture was placed on ice for 30 minutes, followed by centrifugation at 10,000× g for 10 minutes to precipitate the ^35 S-labeled polysaccharide. The precipitate was dissolved in 25 μl of a buffer containing 0.1 mg/ml of BSA, 0.05 M Tris-acetate, pH 7.5, and 10 milliunits of chondroitinase ACII (originating from Arthrobacter aurescens, produced by Seikagaku Corporation) to perform a reaction at 37° C. for 2 hours. The solution after the reaction was spotted onto Whatman No. 1 filter paper together with 2-acetamido-2-deoxy-3-O-(β-D-gluco-4-enopyranosyluronic acid)-6-O-sulfo-D-galactose (ΔDi-6S) and 2-acetamido-2-deoxy-3-O-(β-D-gluco-4-enopyranosyluronic acid)-4-O-sulfo-D-galactose (ΔDi-4S) (each 0.1 μmol, each produced by Seikagaku Corporation), followed by development for 20 hours with 1-butanol/acetic acid/1 M ammonium hydroxide (2:3:1 (V/V/V)).
Positions of ΔDi-6S and ΔDi-4S were inspected by using an ultraviolet lamp respectively. Portions corresponding to them were excised from the filter paper respectively, and were then placed in a scintillator prepared by dissolving 5 g of diphenyloxazole and 0.25 g of dimethyl-1,4-bis(2-(5-phenyloxazole))benzene in 1 L of toluene to measure radioactivity. […] According to incorporation of ^35 S into ΔDi-6S and ΔDi-4S, activities of chondroitin 6-sulfotransferase and chondroitin 4-sulfotransferase were calculated respectively. The activity to catalyze transfer of 1 pmol sulfate group/minute was defined as 1 unit.

[3] = Specific activity of purified chondroitin 6-sulfotransferase (35S incorporation into ΔDi-6S and ΔDi-4S); type: biochemical; conditions: chondroitin substrate
Method: In the purification steps, the sulfotransferase activity was measured as follows. The reaction solution had the following composition. Namely, the reaction solution (50 μl) contained 2.5 μmol of imidazol-HCl, pH 6.8, 1.25 μg of protamine hydrochloride, 0.1 μmol of dithiothreitol,25 nmol (as an amount of glucuronic acid) of chondroitin (produced by Seikagaku Corporation), 50 pmol of [^35 S]PAPS (adenosine 3'-phosphate, 5'-phosphosulfate), and the enzyme.
The reaction solution was incubated at 37° C. for 20 minutes in a reaction tube, and then the reaction was terminated by immersing the reaction tube in boiling water for 1 minute. […] To an aliquot (200 μl) of an obtained collected fraction, 1 ml of a scintillation cocktail (Clearsol, produced by nacalai tesque) was added to measure ^35 S-radioactivity. Thus incorporation of ^35 S into the polysaccharide was measured. […]
Positions of ΔDi-6S and ΔDi-4S were inspected by using an ultraviolet lamp respectively. Portions corresponding to them were excised from the filter paper respectively, and were then placed in a scintillator prepared by dissolving 5 g of diphenyloxazole and 0.25 g of dimethyl-1,4-bis(2-(5-phenyloxazole))benzene in 1 L of toluene to measure radioactivity. […] According to incorporation of ^35 S into ΔDi-6S and ΔDi-4S, activities of chondroitin 6-sulfotransferase and chondroitin 4-sulfotransferase were calculated respectively. […]

Molecule	Incorporation of 35S [1]	Incorporation (transfer) of sulfate group into the oligosaccharide, in words [1]	Transfer of sulfate group to glycosaminoglycan substrate by C6ST, in words [2]	other results
CC(=O)N[C@H]1[C@H](O[C@H]2[C@@H](O)[C@@H](CO)O[C@@H](O[C@H]3[C@H](O)[C@@H](NC(C)=O)C(O)O[C@@H]3CO)[C@@H]2O)O[C@H](CO)[C@@H](O[C@@H]2O[C@H](CO)[C@H](O)[C@H](O)[C@H]2O)[C@@H]1O (stereo partly shown) [L1L1, Galβ1--4GlcNAcβ1--3Galβ1--4GlcNAc]	0.031 pmol/minute/μg protein	observed		
CC(=O)N[C@H]1[C@H](O[C@H]2[C@@H](O)[C@@H](COS(=O)(=O)O)O[C@@H](O[C@H]3[C@H](O)[C@@H](NC(C)=O)C(O)O[C@@H]3COS(=O)(=O)O)[C@@H]2O)O[C@H](COS(=O)(=O)O)[C@@H](O[C@@H]2O[C@H](CO)[C@H](O)[C@H](O)[C@H]2O)[C@@H]1O (stereo partly drawn) [L2L4, Galβ1--4GlcNAc(6S)β1--3Gal(6S)β1--4GlcNAc(6S)]	0.29 pmol/minute/μg protein	observed		
CC(=O)N[C@H]1C(O)O[C@H](CO)[C@@H](O[C@@H]2O[C@H](CO)[C@H](O)[C@H](O)[C@H]2O)[C@@H]1O (stereo partly shown) [LN, Galβ1--4GlcNAc]	0.012 pmol/minute/μg protein	observed		
[Cl][Mn][Cl] [MnCl2]				Effect on the activity of C6ST [2]: increased
CC(=O)NC1C(O)OC(CO)C(OC2OC(CO)C(O)C(OC3OC(CO)C(OC4OC(CO)C(O)C(OC5(C(=O)O)CC(O)C(NC(C)=O)C(C(O)C(O)CO)O5)C4O)C(O)C3NC(C)=O)C2O)C1O (stereo not shown) [SL1L1, NeuAcα2--3Galβ1--4GlcNAcβ1--3Galβ1--4GlcNAc]	0.034 pmol/minute/μg protein	observed		
CC(=O)NC1C(O)OC(COS(=O)(=O)O)C(OC2OC(COS(=O)(=O)O)C(O)C(OC3OC(COS(=O)(=O)O)C(OC4OC(CO)C(O)C(OC5(C(=O)O)CC(O)C(NC(C)=O)C(C(O)C(O)CO)O5)C4O)C(O)C3NC(C)=O)C2O)C1O [SL2L4, NeuAcα2--3Galβ1--4GlcNAc(6S)β1--3Gal(6S)β1--4GlcNAc(6S)]	0.48 pmol/minute/μg protein	observed		
CC(=O)NC1C(O)OC(CO)C(OC2OC(CO)C(O)C(OC3(C(=O)O)CC(O)C(NC(C)=O)C(C(O)C(O)CO)O3)C2O)C1O (stereo not shown) [SLN, NeuAcα2--3Galβ1--4GlcNAc]	0.022 pmol/minute/μg protein	observed		
CC(=O)NC1C(O)CC(OC2C(O)C(CO)OC(OC3C(CO)OC(O)C(NC(C)=O)C3OC3OC(C)C(O)C(O)C3O)C2O)(C(=O)O)OC1C(O)C(O)CO (stereo not shown) [SLe^x, NeuAcα2--3Galβ1--4(Fucα1-3)GlcNAc]		no radioactivity was detected; also recorded: not detected		
chondroitin			transfers the sulfate group	
chondroitin sulfate			transfers the sulfate group	
chondroitin sulfate A			transfers the sulfate group	
chondroitin sulfate C			transfers the sulfate group	
chondroitin sulfate E			only scarcely transferred	
dermatan sulfate			only scarcely transferred	
heparan sulfate			only scarcely transferred	
keratan sulfate			transfers the sulfate group	
protamine				Effect on the activity of C6ST [2]: increased
B1				Specific activity of chondroitin 6-sulfotransferase ([3]; 1 unit = transfer of 1 pmol sulfate group/minute): 4.3×10^5 units/mg; Ratio of activities of chondroitin 4-sulfotransferase/chondroitin 6-sulfotransferase ([3]; purified enzyme): 0.02
